Experimental findings from patent US11807644B2 (PMV Pharmaceuticals, Inc., priority 2020, dated 2023) are described below.

SMILES strings stand for the structures.

The assay addresses T1, recombinant His-tag Y220C p53 DBD protein (Homo sapiens, UniProt P04637, Y220C).
T1 construct: recombinant His-tag Y220C p53 DBD protein (amino acids #˜94-312)
Description: In vitro DNA binding activity assay (TR-FRET): binding of His-tag Y220C p53 DBD to biotin-labeled consensus DNA. Format: biochemical. The settings on record: SC150 = concentration to increase DNA binding by […], His-tag Y220C p53 DBD, biotin-labeled consensus DNA.
Take `CN1CC[C@@H](Nc2cccc3c2cc(-c2noc(CNC(=O)c4ccc5cc[nH]c5c4)n2)n3CC(F)(F)F)[C@@H](F)C1` [Compound 267B, N-{[3-(4-{[(3S,4R)-3-fluoro-1-methylpiperidin-4-yl]amino}-1-(2,2,2-trifluoroethyl)-1H-indol-2-yl)-1,2,4-oxadiazol-5-yl]methyl}-1H-indole-6-carboxamide]: the “Y220C SC150 (μM)” value is given as “* (* = 0 μM ≤ SC150 < 0.1 μM)”. As to `CCn1ccc(C(=O)NCc2nc(-c3cc4c(N[C@H]5CCN(C)C[C@H]5F)cccc4n3CC(F)(F)F)no2)c1` [Compound 187B, 1-ethyl-N-{[3-(4-{[(3R,4S)-3-fluoro-1-methylpiperidin-4-yl]amino}-1-(2,2,2-trifluoroethyl)-1H-indol-2-yl)-1,2,4-oxadiazol-5-yl]methyl}-1H-pyrrole-3-carboxamide], the “Y220C SC150 (μM)” value is “* (* = 0 μM ≤ SC150 < 0.1 μM)”. On to `CCN1CC[C@@H](Nc2cccc3c2cc(-c2noc(CNC(=O)c4ccn(C5CCOC5)c4)n2)n3CC(F)(F)F)[C@@H](F)C1` (stereo partly drawn) [Compound 324B, N-{[3-(4-{[(3S,4R)-1-ethyl-3-fluoropiperidin-4-yl]amino}-1-(2,2,2-trifluoroethyl)-1H-indol-2-yl)-1,2,4-oxadiazol-5-yl]methyl}-1-(oxolan-3-yl)-1H-pyrrole-3-carboxamide], for which the “Y220C SC150 (μM)” value was “* (* = 0 μM ≤ SC150 < 0.1 μM)”. With `CN1CC[C@@H](Nc2cccc3c2cc(-c2noc(CNC(=O)c4csc(N5CCOCC5)c4)n2)n3CC(F)(F)F)[C@@H](F)C1` [Compound 436B, N-{[3-(4-{[(3S,4R)-3-fluoro-1-methylpiperidin-4-yl]amino}-1-(2,2,2-trifluoroethyl)-1H-indol-2-yl)-1,2,4-oxadiazol-5-yl]methyl}-5-(morpholin-4-yl)thiophene-3-carboxamide] the entry was “* (* = 0 μM ≤ SC150 < 0.1 μM)”; with `CN1CC[C@@H](Nc2cccc3c2cc(-c2nnc(CNC(=O)c4ccn(C(C)(C)C)c4)o2)n3CC(F)(F)F)[C@@H](F)C1` [Compound 288B, 1-tert-butyl-N-{[5-(4-{[(3S,4R)-3-fluoro-1-methylpiperidin-4-yl]amino}-1-(2,2,2-trifluoroethyl)-1H-indol-2-yl)-1,3,4-oxadiazol-2-yl]methyl}-1H-pyrrole-3-carboxamide], “* (* = 0 μM ≤ SC150 < 0.1 μM)”. With `CC(C)c1nc(C(=O)NCc2nc(-c3cc4c(N[C@@H]5CCN(C)C[C@@H]5F)cccc4n3CC(F)(F)F)no2)cn1C` [Compound 539B, N-{[3-(4-{[(3S,4R)-3-fluoro-1-methylpiperidin-4-yl]amino}-1-(2,2,2-trifluoroethyl)-1H-indol-2-yl)-1,2,4-oxadiazol-5-yl]methyl}-1-methyl-2-(propan-2-yl)-1H-imidazole-4-carboxamide], the “Y220C SC150 (μM)” value is reported as “* (* = 0 μM ≤ SC150 < 0.1 μM)”. With `CN1CCC(Nc2cccc3c2cc(-c2noc(CNC(=O)[C@@H]4C[C@@H]4F)n2)n3CC(F)(F)F)CC1` (racemic) [Compound 147B, (1S,2S)-2-fluoro-N-[(3-{4-[(1-methylpiperidin-4-yl)amino]-1-(2,2,2-trifluoroethyl)-1H-indol-2-yl}-1,2,4-oxadiazol-5-yl)methyl]cyclopropane-1-carboxamide] the entry was “* (* = 0 μM ≤ SC150 < 0.1 μM)”; with `CC(C)(C)n1cnc(C(=O)NCc2nc(-c3cc4c(N[C@@H]5CCN(C6CC6)C[C@@H]5F)cccc4n3CC(F)(F)F)no2)c1` [Compound 329B], “* (* = 0 μM ≤ SC150 < 0.1 μM)”. As for `CN1CC[C@@H](Nc2cccc3c2cc(-c2noc(CNC(=O)c4cnn(C5(C)CCOCC5)c4)n2)n3CC(F)(F)F)[C@@H](F)C1` [Compound 404B, N-{[3-(4-{[(3S,4R)-3-fluoro-1-methylpiperidin-4-yl]amino}-1-(2,2,2-trifluoroethyl)-1H-indol-2-yl)-1,2,4-oxadiazol-5-yl]methyl}-1-(4-methyloxan-4-yl)-1H-pyrazole-4-carboxamide], the “Y220C SC150 (μM)” value is “* (* = 0 μM ≤ SC150 < 0.1 μM)”.

For `Cn1cc(C(=O)NCc2nc(-c3cc4c(N[C@@H]5CCN(C(C)(C)C)C[C@H]5F)cccc4n3CC(F)(F)F)no2)cn1` (racemic) [Compound 407B, N-{[3-(4-{[(3R,4R)-1-tert-butyl-3-fluoropiperidin-4-yl]amino}-1-(2,2,2-trifluoroethyl)-1H-indol-2-yl)-1,2,4-oxadiazol-5-yl]methyl}-1-methyl-1H-pyrazole-4-carboxamide], the “Y220C SC150 (μM)” value is listed as “* (* = 0 μM ≤ SC150 < 0.1 μM)”. Take `CN1CCC(Nc2cccc3c2cc(-c2nnc(CNC(=O)c4cccc(CN5CCOCC5)c4)s2)n3CC(F)(F)F)CC1` [Compound 46B, N-[(5-{4-[(1-methylpiperidin-4-yl)amino]-1-(2,2,2-trifluoroethyl)-1H-indol-2-yl}-1,3,4-thiadiazol-2-yl)methyl]-3-[(morpholin-4-yl)methyl]benzamide]: the “Y220C SC150 (μM)” value is reported as “* (* = 0 μM ≤ SC150 < 0.1 μM)”.

For the compound `CCCC(=O)NCc1nnc(-c2cc3c(NC4CCN(C)CC4)cccc3n2CC(F)(F)F)s1` [Compound 65B, N-[(5-{4-[(1-methylpiperidin-4-yl)amino]-1-(2,2,2-trifluoroethyl)-1H-indol-2-yl}-1,3,4-thiadiazol-2-yl)methyl]butanamide], the “Y220C SC150 (μM)” value is recorded as “** (** = 0.1 μM ≤ SC150 < 0.5 μM)”.

In the case of `CNC(=O)NCc1nnc(-c2cc3c(NC4CCN(C)CC4)cccc3n2CC(F)(F)F)s1` [Compound 56B, 3-methyl-1-[(5-{4-[(1-methylpiperidin-4-yl)amino]-1-(2,2,2-trifluoroethyl)-1H-indol-2-yl}-1,3,4-thiadiazol-2-yl)methyl]urea], the “Y220C SC150 (μM)” value is reported as “** (** = 0.1 μM ≤ SC150 < 0.5 μM)”. `CC1(n2ccc(C(=O)NCc3nc(-c4cc5c(N[C@@H]6CCOC[C@@H]6F)cccc5n4CC(F)(F)F)no3)c2)CCOCC1` (stereo in doubt) [Compound 494B, N-((3-(4-(((3R,4R)-3-fluorotetrahydro-2H-pyran-4-yl)amino)-1-(2,2,2-trifluoroethyl)-1H-indol-2-yl)-1,2,4-oxadiazol-5-yl)methyl)-1-(4-methyltetrahydro-2H-pyran-4-yl)-1H-pyrrole-3-carboxamide]: the “Y220C SC150 (μM)” value is recorded as “* (* = 0 μM ≤ SC150 < 0.1 μM)”. As for `CC1CN(c2nc(C(=O)NCc3nc(-c4cc5c(N[C@@H]6CCN(C)C[C@@H]6F)cccc5n4CC(F)(F)F)no3)cs2)C[C@H](C)O1` (stereo in doubt) [Compound 517B, 2-[(2S,6S)-2,6-dimethylmorpholin-4-yl]-N-{[3-(4-{[(3S,4R)-3-fluoro-1-methylpiperidin-4-yl]amino}-1-(2,2,2-trifluoroethyl)-1H-indol-2-yl)-1,2,4-oxadiazol-5-yl]methyl}-1,3-thiazole-4-carboxamide], the “Y220C SC150 (μM)” value is listed as “* (* = 0 μM ≤ SC150 < 0.1 μM)”.

As to `COc1ccc(NCc2nc(-c3cc4c(N[C@@H]5CCN(C)C[C@@H]5F)cccc4n3CC(F)(F)F)no2)cc1` [Compound 380B, N-[(3S,4R)-3-fluoro-1-methylpiperidin-4-yl]-2-(5-{[(4-methoxyphenyl)amino]methyl}-1,2,4-oxadiazol-3-yl)-1-(2,2,2-trifluoroethyl)-1H-indol-4-amine], the “Y220C SC150 (μM)” value is “* (* = 0 μM ≤ SC150 < 0.1 μM)”. Consider `CN1CCC(Nc2cccc3c2cc(-c2nnc(CNC(=O)c4cccnc4)s2)n3CC(F)(F)F)CC1` [Compound 42B, N-[(5-{4-[(1-methylpiperidin-4-yl)amino]-1-(2,2,2-trifluoroethyl)-1H-indol-2-yl}-1,3,4-thiadiazol-2-yl)methyl]pyridine-3-carboxamide], for which the “Y220C SC150 (μM)” value is recorded as “** (** = 0.1 μM ≤ SC150 < 0.5 μM)”. Take `CN1CCC(Nc2cccc3c2cc(-c2nnc(CNC(=O)C4(F)CC4)s2)n3CC(F)(F)F)CC1` [Compound 31B, 1-fluoro-N-[(5-{4-[(1-methylpiperidin-4-yl)amino]-1-(2,2,2-trifluoroethyl)-1H-indol-2-yl}-1,3,4-thiadiazol-2-yl)methyl]cyclopropane-1-carboxamide]: the “Y220C SC150 (μM)” value is reported as “** (** = 0.1 μM ≤ SC150 < 0.5 μM)”. Turning to `CC(C)(C)n1cc(C(=O)NCc2nc(-c3cc4c(N[C@@H]5CCOC[C@@H]5F)cccc4n3CC(F)(F)F)no2)cn1` [Compound 497B, 1-tert-butyl-N-{[3-(4-{[(3R,4R)-3-fluorooxan-4-yl]amino}-1-(2,2,2-trifluoroethyl)-1H-indol-2-yl)-1,2,4-oxadiazol-5-yl]methyl}-1H-pyrazole-4-carboxamide], the “Y220C SC150 (μM)” value is reported as “* (* = 0 μM ≤ SC150 < 0.1 μM)”. Take `COCCN1CC[C@@H](Nc2cccc3c2cc(-c2noc(CNC(=O)c4ccn(C(C)(C)C)c4)n2)n3CC(F)(F)F)[C@@H](F)C1` [Compound 337B, 1-tert-butyl-N-{[3-(4-{[(3S,4R)-3-fluoro-1-(2-methoxyethyl)piperidin-4-yl]amino}-1-(2,2,2-trifluoroethyl)-1H-indol-2-yl)-1,2,4-oxadiazol-5-yl]methyl}-1H-pyrrole-3-carboxamide]: the “Y220C SC150 (μM)” value is on record as “* (* = 0 μM ≤ SC150 < 0.1 μM)”.

In the case of `COCC(C)n1ccc(C(=O)NCc2nc(-c3cc4c(N[C@@H]5CCN(C)C[C@@H]5F)cccc4n3CC(F)(F)F)no2)c1` (stereo partly drawn) [Compound 289B, N-{[3-(4-{[(3S,4R)-3-fluoro-1-methylpiperidin-4-yl]amino}-1-(2,2,2-trifluoroethyl)-1H-indol-2-yl)-1,2,4-oxadiazol-5-yl]methyl}-1-(1-methoxypropan-2-yl)-1H-pyrrole-3-carboxamide], the “Y220C SC150 (μM)” value is reported as “* (* = 0 μM ≤ SC150 < 0.1 μM)”. `CC(C)(C)n1ccc(C(=O)NCc2nc(-c3cc4c(N[C@H]5CCC(=O)NC5)cccc4n3CC(F)(F)F)no2)c1` [Compound 356B, 1-tert-butyl-N-{[3-(4-{[(3S)-6-oxopiperidin-3-yl]amino}-1-(2,2,2-trifluoroethyl)-1H-indol-2-yl)-1,2,4-oxadiazol-5-yl]methyl}-1H-pyrrole-3-carboxamide]: the “Y220C SC150 (μM)” value is “* (* = 0 μM ≤ SC150 < 0.1 μM)”. In the case of `CN1CC[C@@H](Nc2cccc3c2cc(-c2noc(CNC(=O)c4ccc(C(C)(C)C)[nH]4)n2)n3CC(F)(F)F)[C@@H](F)C1` [Compound 524B, 5-tert-butyl-N-{[3-(4-{[(3S,4R)-3-fluoro-1-methylpiperidin-4-yl]amino}-1-(2,2,2-trifluoroethyl)-1H-indol-2-yl)-1,2,4-oxadiazol-5-yl]methyl}-1H-pyrrole-2-carboxamide], the “Y220C SC150 (μM)” value is listed as “* (* = 0 μM ≤ SC150 < 0.1 μM)”.
